# Measurements: patent publication US20220402862A1 (Intellia Therapeutics, Inc., priority 2019, published 2022)
# Experiments:
# [1] = test system: Transthyretin (TTR); assay: Serum TTR ELISA in mice after LNP dosing; type: in vivo, CD-1 female mice; settings: guide G282 experiments; for Serum TTR % TSS: mouse serum TTR relative to TSS control; for Serum TTR: mouse serum, ELISA
# Description: CD-1 female mice ranging from 6-10 weeks of age were used in each study. Animals were weighed and grouped according to body weight for preparing dosing solutions based on group average weight. LNPs were dosed via the lateral tail vein in a volume of 0.2 mL per animal (approximately 10 mL per kilogram body weight). The animals were periodically observed for adverse effects for at least 24 hours post dose. For studies measuring in vivo editing in liver, CD-1 female mice were dosed at 0.1 mg/kg unless otherwise noted. Animals were euthanized at 6 or 7 days by ex sanguination via cardiac puncture under isoflurane anesthesia. Liver tissue was collected from each animal for DNA extraction and analysis. Blood was collected into serum separator tubes or into tubes containing buffered sodium citrate for plasma as described herein. Cohorts of mice were measured for editing by Next-Generation Sequencing (NGS).
# Blood was collected and the serum was isolated as indicated. The total mouse TTR serum levels were determined using a Mouse Prealbumin (Transthyretin) ELISA Kit (Aviva Systems Biology, Cat. OKIA00111). Briefly, sera were serial diluted with kit sample diluent to a final dilution of 10,000-fold for 0.1 mg/kg dose and final dilutions of 10,000-fold and of 2,500-fold for 0.3 mg/kg. This diluted sample was then added to the ELISA plates and the assay was carried out according to the manufacturer's directions.
# [2] = RNA encapsulation efficiency of LNPs (Ribogreen fluorescence assay); type: physicochemical; settings: LNP
# Description: A fluorescence-based assay (Ribogreen®, ThermoFisher Scientific) is used to determine total RNA concentration and free RNA. Encapsulation efficiency is calculated as (Total RNA-Free RNA)/Total RNA. LNP samples are diluted appropriately with 1× TE buffer containing 0.2% Triton-X 100 to determine total RNA or 1× TE buffer to determine free RNA. Standard curves are prepared by utilizing the starting RNA solution used to make the compositions and diluted in 1× TE buffer +/− 0.2% Triton-X 100. Diluted RiboGreen® dye (according to the manufacturer's instructions) is then added to each of the standards and samples and allowed to incubate for approximately 10 minutes at room temperature, in the absence of light. A SpectraMax M5 Microplate Reader (Molecular Devices) is used to read the samples with excitation, auto cutoff and emission wavelengths set to 488 nm, 515 nm, and 525 nm respectively. Total RNA and free RNA are determined from the appropriate standard curves.
# Encapsulation efficiency is calculated as (Total RNA-Free RNA)/Total RNA. The same procedure may be used for determining the encapsulation efficiency of a DNA-based cargo component. In a fluorescence-based assay, for single-strand DNA Oligreen Dye may be used, and for double-strand DNA, Picogreen Dye. Alternatively, the total RNA concentration can be determined by a reverse-phase ion-pairing (RP-IP) HPLC method. Triton X-100 is used to disrupt the LNPs, releasing the RNA. The RNA is then separated from the lipid components chromatographically by RP-IP HPLC and quantified against a standard curve using UV absorbance at 260 nm.
# [3] = Dynamic light scattering of LNPs: Z-average diameter, number average diameter, PDI; type: physicochemical; settings: LNP
# Description: Dynamic Light Scattering (“DLS”) is used to characterize the polydispersity index (“PDI”) and size of the LNPs of the present disclosure. DLS measures the scattering of light that results from subjecting a sample to a light source. PDI, as determined from DLS measurements, represents the distribution of particle size (around the mean particle size) in a population, with a perfectly uniform population having a PDI of zero.
# LNP compositions are analyzed for average particle size, polydispersity index (PDI), total RNA content, encapsulation efficiency of RNA, and zeta potential. LNP compositions may be further characterized by lipid analysis, AF4-MALS, NTA, and/or cryo-EM. Average particle size and polydispersity are measured by dynamic light scattering (DLS) using a Malvern Zetasizer DLS instrument or Wyatt NanoStar. LNP samples were diluted with PBS buffer prior to being measured by DLS. Z-average diameter which is an intensity-based measurement of average particle size is reported along with number average diameter and PDI. A Malvern Zetasizer or Wyatt NanoStar instrument is also used to measure the zeta potential of the LNP. Samples are diluted 1:17 (50 μL into 800 μL) in 0.1× PBS, pH 7.4 prior to measurement.
# [4] = sg:mRNA 1:1, N/P about 6, amine lipid/DSPC/cholesterol/PEG-2k-DMG 50/9/38/3, Table 2, Experiments 2-20
# [5] = sg:mRNA 1:1, N/P about 6, 50/9/38/3, Table 2, Experiments 2-20
# [6] = sg:mRNA 1:1.3, N/P about 6, amine lipid/DSPC/cholesterol/PEG-2k-DMG 50/9/38/3, Table 2, Experiment 1
# [7] = sg:mRNA 1:1.3, N/P about 6, 50/9/38/3, Table 2, Experiment 1
Compound,Serum TTR % TSS [1],Serum TTR [1],"Encapsulation (%) [2, 4]","Number mean (nm) [3, 5]","PDI [3, 5]","Z-avg (nm) [3, 5]","Encapsulation (%) [2, 6]","Number mean (nm) [3, 7]","PDI [3, 7]","Z-avg (nm) [3, 7]"
"CCCCC/C=C\C/C=C\CCCCCCCC(=O)OCC(COC(=O)CCC(OCCCCCCCC)OCCCCCCCC)COC(=O)OCCCN(C(C)C)C(C)C (stereo not drawn) [Compound 21, 3-((4,4-bis(octyloxy)butanoyl)oxy)-2-((((3-(diisopropylamino)propoxy)carbonyl)oxy)methyl)propyl (9Z,12Z)-octadeca-9,12-dienoate]",87%,897 µg/mL,94%,59.75 nm,0.039,75.41 nm,,,,
"CCCCC/C=C\C/C=C\CCCCCCCC(=O)OCC(COC(=O)CCC(OCCCCCCCC)OCCCCCCCC)COC(=O)OCCCN(C)CC (stereo not drawn) [Compound 20, 3-((4,4-bis(octyloxy)butanoyl)oxy)-2-((((3-(ethyl(methyl)amino)propoxy)carbonyl)oxy)methyl)propyl (9Z,12Z)-octadeca-9,12-dienoate]",46%,476 µg/mL,96%,64.34 nm,0.023,79.25 nm,,,,
"CCCCC/C=C\C/C=C\CCCCCCCC(=O)OCC(COC(=O)CCC(OCCCCCCCC)OCCCCCCCC)COC(=O)OCCN(CC)CC (stereo not drawn) [Compound 9, 3-((4,4-bis(octyloxy)butanoyl)oxy)-2-((((2-(diethylamino)ethoxy)carbonyl)oxy)methyl)propyl (9Z,12Z)-octadeca-9,12-dienoate]",100%,865 µg/mL,89%,45.11 nm,0.058,62.99 nm,,,,
"CCCCC/C=C\C/C=C\CCCCCCCC(=O)OCC(COC(=O)CCC(OCCCCCCCC)OCCCCCCCC)COC(=O)NCCCN1CCCC1 (stereo not drawn) [Compound 8, 3-((4,4-bis(octyloxy)butanoyl)oxy)-2-((((3-(pyrrolidin-1-yl)propyl)carbamoyl)oxy)methyl)propyl (9Z,12Z)-octadeca-9,12-dienoate]",106%,962 µg/mL,100%,37.17 nm,0.093,53.88 nm,,,,
"CCCCC/C=C\C/C=C\CCCCCCCC(=O)OCC(COC(=O)CCC(OCCCCCCCC)OCCCCCCCC)COC(=O)OCCC(C)N(C)C (stereo not drawn) [Compound 22, 3-((4,4-bis(octyloxy)butanoyl)oxy)-2-((((3-(dimethylamino)butoxy)carbonyl)oxy)methyl)propyl (9Z,12Z)-octadeca-9,12-dienoate]",61%,634 µg/mL,98%,73.96 nm,0.004,89.43 nm,,,,
"CCCCC/C=C\C/C=C\CCCCCCCC(=O)OCC(COC(=O)CCC(OCCCCCCCC)OCCCCCCCC)COC(=O)NCCCN(CC)CC (stereo not drawn) [Compound 7, 3-((4,4-bis(octyloxy)butanoyl)oxy)-2-((((3-(diethylamino)propyl)carbamoyl)oxy)methyl)propyl (9Z,12Z)-octadeca-9,12-dienoate]",104%,940 µg/mL,99%,43.91 nm,0.126,67.61 nm,,,,
"CCCCC/C=C\C/C=C\CCCCCCCC(=O)OCC(COC(=O)CCC(OCCCCCCCC)OCCCCCCCC)COC(=O)OC1CCN(CC)CC1 (stereo not drawn) [Compound 17, 3-((4,4-bis(octyloxy)butanoyl)oxy)-2-(((((1-ethylpiperidin-4-yl)oxy)carbonyl)oxy)methyl)propyl (9Z,12Z)-octadeca-9,12-dienoate]",70%,727 µg/mL,98%,56.58 nm,0.037,70.97 nm,,,,
"CCCCC/C=C\C/C=C\CCCCCCCC(=O)OCC(COC(=O)CCC(OCCCCCCCC)OCCCCCCCC)COC(=O)OCCCN(C)C (stereo not drawn) [Compound 2, 3-((4,4-bis(octyloxy)butanoyl)oxy)-2-((((3-(dimethylamino)propoxy)carbonyl)oxy)methyl)propyl (9Z,12Z)-octadeca-9,12-dienoate]",90%,1114 µg/mL,,,,,96%,59.17 nm,0.046,75.64 nm
"CCCCC/C=C\C/C=C\CCCCCCCC(=O)OCC(COC(=O)CCC(OCCCCCCCC)OCCCCCCCC)COC(=O)OCCCCN(CC)CC (stereo not drawn) [Compound 11, 3-((4,4-bis(octyloxy)butanoyl)oxy)-2-((((4-(diethylamino)butoxy)carbonyl)oxy)methyl)propyl (9Z,12Z)-octadeca-9,12-dienoate]",78%,706 µg/mL,97%,68.35 nm,0.022,85.35 nm,,,,
"CCCCC/C=C\C/C=C\CCCCCCCC(=O)OCC(COC(=O)CCC(OCCCCCCCC)OCCCCCCCC)COC(=O)NCCCN(C)C (stereo not drawn) [Compound 6, 3-((4,4-bis(octyloxy)butanoyl)oxy)-2-((((3-(dimethylamino)propyl)carbamoyl)oxy)methyl)propyl (9Z,12Z)-octadeca-9,12-dienoate]",90%,1107 µg/mL,,,,,100%,41.82 nm,0.066,56.86 nm
"CCCCC/C=C\C/C=C\CCCCCCCC(=O)OCC(COC(=O)CCC(OCCCCCCCC)OCCCCCCCC)COC(=O)OCCN(C)C (stereo not drawn) [Compound 18, 3-((4,4-bis(octyloxy)butanoyl)oxy)-2-((((2-(dimethylamino)ethoxy)carbonyl)oxy)methyl)propyl (9Z,12Z)-octadeca-9,12-dienoate]",82%,849 µg/mL,97%,48.22 nm,0.090,68.72 nm,,,,
"CCCCC/C=C\C/C=C\CCCCCCCC(=O)OCC(COC(=O)CCC(OCCCCCCCC)OCCCCCCCC)COC(=O)OCCCN(C)CCN(C)C (stereo not drawn) [Compound 4, 13-(((4,4-bis(octyloxy)butanoyl)oxy)methyl)-2,5-dimethyl-10-oxo-9,11-dioxa-2,5-diazatetradecan-14-yl (9Z,12Z)-octadeca-9,12-dienoate]",109%,1347 µg/mL,,,,,100%,44.92 nm,0.129,72.11 nm
"CCCCC/C=C\C/C=C\CCCCCCCC(=O)OCC(COC(=O)CCC(OCCCCCCCC)OCCCCCCCC)COC(=O)OCCCN1CCCCCC1 (stereo not drawn) [Compound 23, 3-(((3-(azepan-1-yl)propoxy)carbonyl)oxy)-2-(((4,4-bis(octyloxy)butanoyl)oxy)methyl)propyl (9Z,12Z)-octadeca-9,12-dienoate]",83%,716 µg/mL,95%,56.62 nm,0.068,74.78 nm,,,,
